The test system of data set [1] is Smn protein in SMA patient fibroblast cells (GM03813). As to the kind of experiment: Smn protein assay in cultured cells (SMN HTRF). It counts as cell-based, human. The settings on record: SMA patient fibroblast cells, 48 hours; for EC1.5x for Smn protein expression: 7-point concentration curve, SMN HTRF, concentration producing 1.5 times Smn protein vs DMSO vehicle control; for maximum fold (Fold) increase of Smn protein: 7-point concentration data, fold relative to vehicle control. The method in brief:
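Patient-derived SMA fibroblasts are plated, given compound for 48 h, then lysed in RIPA buffer with protease inhibitors. Lysate Smn is detected by an anti-SMN d2/kryptate HTRF pair incubated overnight. The normalized ΔF is divided by the vehicle ΔF to give fold change, from which EC1.5× and maximum fold are taken.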
On the technique in general: In TR-FRET formats the signal depends on donor and acceptor labels being close together.

In data set [2] the test system is SMN2 minigene mRNA (SMN2-A minigene) in HEK293H cells. Description: SMN2 minigene mRNA splicing RT-qPCR assay in cultured cells. It counts as cell-based, human. As to conditions: Homo sapiens, HEK293-H; concentration increasing full length SMN2 mRNA 1.5-fold relative to vehicle-treated cells; HEK293H cells with SMN2-A minigene, 24 hours, 7-point concentration data; read-out: EC1.5x for production of full length SMN2 mRNA. The essentials: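 Cells are seeded, left to attach 4-6 h, then dosed with test compound across seven concentrations and incubated 24 h. Lysates undergo RT-qPCR with primers/probe specific to the exon 7-containing minigene transcript, co-amplified with GAPDH. Fold change over vehicle is calculated, and EC1.5× marks the 1.5-fold point.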
(In general: In qPCR the cycle at which signal appears reflects the starting amount.)

As usually defined, the melting point is the temperature, or range, at which the solid turns liquid.

Take `Cc1cn2nc(-c3cc(=O)n4cc(N5CCN[C@@H](C)C5)ccc4n3)cc2cn1` [Compound 441, 7-[(3S)-3-methylpiperazin-1-yl]-2-(6-methylpyrazolo[1,5-a]pyrazin-2-yl)-4H-pyrido[1,2-a]pyrimidin-4-one]: the melting point fell in the range of 235 to 240 °C. In data set [1], the “EC1.5x for Smn protein expression” value was “**** (an EC1.5x≤0.3 μM is indicated by four stars (****))” and the “maximum fold (Fold) increase of Smn protein” value (“maximum fold (Fold) increase” below) is listed as “***** (a fold increase >1.65 is indicated by five stars (*****))”. Besides, the EC (1.5-fold increase) in data set [2] is below 0.1 µM.

`Cc1cn2nc(-c3cc(=O)n4cc(N5C[C@@H](C)N[C@@H](C)C5)ccc4n3)cc2cn1` [Compound 442, 7-[(3R,5S)-3,5-dimethylpiperazin-1-yl]-2-(6-methylpyrazolo[1,5-a]pyrazin-2-yl)-4H-pyrido[1,2-a]pyrimidin-4-one] registered a melting point of 258 to 260 °C. Moreover, in data set [1], the “EC1.5x for Smn protein expression” value is recorded as “**** (an EC1.5x≤0.3 μM is indicated by four stars (****))” and the “maximum fold (Fold) increase” value is given as “***** (a fold increase >1.65 is indicated by five stars (*****))”. Further, in data set [2], the EC (1.5-fold increase) is below 0.1 µM.

`CN(C)c1ccc(-c2cc(=O)n3cc(C4=CCNCC4)ccc3n2)cn1` [Compound 444, 2-[6-(dimethylamino)pyridin-3-yl]-7-(1,2,3,6-tetrahydropyridin-4-yl)-4H-pyrido[1,2-a]pyrimidin-4-one]: the melting point lay in the range of 255 to 257 °C. Also, in data set [1], the “EC1.5x for Smn protein expression” value is “** (an EC1.5× between >1 μM and ≤3 μM is indicated by two stars (**))”; the “maximum fold (Fold) increase” value was “*** (a fold increase between >1.35 and ≤1.5 is indicated by three stars (***))”. Also, in data set [2], the EC (1.5-fold increase) was 0.3 to 1 µM.

Consider `CCN(CC)C1CCN(c2ccc3nc(-c4ccc5nc(C)cn5c4)cc(=O)n3c2)CC1` [Compound 445, 7-[4-(diethylamino)piperidin-1-yl]-2-(2-methylimidazo[1,2-a]pyridin-6-yl)-4H-pyrido[1,2-a]pyrimidin-4-one], for which the melting point was 208 to 210 °C. In data set [1], the “EC1.5x for Smn protein expression” value was “*** (an EC1.5× between >0.3 μM and ≤1 μM is indicated by three stars (***))”; the “maximum fold (Fold) increase” value is “*** (a fold increase between >1.35 and ≤1.5 is indicated by three stars (***))”. Besides, in data set [2], the EC (1.5-fold increase) is below 0.1 µM.

For the molecule `COc1ccc(-c2cc(=O)n3cc(N4CCC(N(C)CCO)CC4)cc(C)c3n2)cc1OC` [Compound 446, 2-(3,4-dimethoxyphenyl)-7-{4-[(2-hydroxyethyl)(methyl)amino]piperidin-1-yl}-9-methyl-4H-pyrido[1,2-a]pyrimidin-4-one], the melting point is 164 to 171 °C. In addition, in data set [1], the “EC1.5x for Smn protein expression” value is “** (an EC1.5× between >1 μM and ≤3 μM is indicated by two stars (**))”; the “maximum fold (Fold) increase” value is “*** (a fold increase between >1.35 and ≤1.5 is indicated by three stars (***))”. Besides, the EC (1.5-fold increase) in data set [2] is below 0.1 µM.

`CCc1cc(N2CCN[C@H](C)C2)cn2c(=O)cc(-c3ccc(OC)c(OC)c3)nc12` [Compound 447, 2-(3,4-dimethoxyphenyl)-9-ethyl-7-[(3R)-3-methylpiperazin-1-yl]-4H-pyrido[1,2-a]pyrimidin-4-one] returned a melting point of 140 to 147 °C. Also, the “maximum fold (Fold) increase” value in data set [1] is listed as “* (A maximum fold increase of ≤1.2 is indicated by one star (*))”. Also, the EC (1.5-fold increase) in data set [2] is 0.1 to 0.3 µM.

`Cc1cn2cc(-c3cc(=O)n4cc(C5CCN(C)CC5)ccc4n3)ccc2n1` [Compound 448, 2-(2-methylimidazo[1,2-a]pyridin-6-yl)-7-(1-methylpiperidin-4-yl)-4H-pyrido[1,2-a]pyrimidin-4-one] came in with a melting point of 218 to 220 °C. Besides, in data set [1], the “EC1.5x for Smn protein expression” value is “**** (an EC1.5x≤0.3 μM is indicated by four stars (****))” and the “maximum fold (Fold) increase” value is reported as “***** (a fold increase >1.65 is indicated by five stars (*****))”. Also, the EC (1.5-fold increase) in data set [2] was below 0.1 µM.

Consider `CN1CC=C(c2ccc3nc(-c4ccc5c(cnn5C)c4)cc(=O)n3c2)CC1` [Compound 449, 2-(1-methyl-1H-indazol-5-yl)-7-(1-methyl-1,2,3,6-tetrahydropyridin-4-yl)-4H-pyrido[1,2-a]pyrimidin-4-one], for which the melting point lay within 148 to 150 °C. Further, in data set [1], the “EC1.5x for Smn protein expression” value was “**** (an EC1.5x≤0.3 μM is indicated by four stars (****))”; the “maximum fold (Fold) increase” value was “**** (a fold increase between >1.5 and ≤1.65 is indicated by four stars (****))”. Also, the EC (1.5-fold increase) in data set [2] is below 0.1 µM.

`CN1CC=C(c2ccc3nc(-c4ccc(N(C)C)nc4)cc(=O)n3c2)CC1` [Compound 450, 2-[6-(dimethylamino)pyridin-3-yl]-7-(1-methyl-1,2,3,6-tetrahydropyridin-4-yl)-4H-pyrido[1,2-a]pyrimidin-4-one] gave a melting point of 214 to 216 °C. Besides, in data set [1], the “maximum fold (Fold) increase” value was “** (a fold increase between >1.2 and ≤1.35 is indicated by two stars (**))”. Further, the EC (1.5-fold increase) in data set [2] was in the range of 0.3 to 1 µM.

With `CCN(CC)C1CCN(c2ccc3nc(-c4cc5c(C)nc(C)cn5n4)cc(=O)n3c2)CC1` [Compound 451, 7-[4-(diethylamino)piperidin-1-yl]-2-(4,6-dimethylpyrazolo[1,5-a]pyrazin-2-yl)-4H-pyrido[1,2-a]pyrimidin-4-one], the melting point lay in the range of 232 to 235 °C. For the same molecule, in data set [1], the “EC1.5x for Smn protein expression” value was “*** (an EC1.5× between >0.3 μM and ≤1 μM is indicated by three stars (***))”; the “maximum fold (Fold) increase” value is on record as “***** (a fold increase >1.65 is indicated by five stars (*****))”. Besides, the EC (1.5-fold increase) in data set [2] was below 0.1 µM.

In turn, `Cc1cn2nc(-c3cc(=O)n4cc(C5CCN(C)CC5)ccc4n3)cc2c(C)n1` [Compound 453, 2-(4,6-dimethylpyrazolo[1,5-a]pyrazin-2-yl)-7-(1-methylpiperidin-4-yl)-4H-pyrido[1,2-a]pyrimidin-4-one] displayed a melting point of 220 to 222 °C. Also, in data set [1], the “EC1.5x for Smn protein expression” value is “**** (an EC1.5x≤0.3 μM is indicated by four stars (****))” and the “maximum fold (Fold) increase” value is listed as “***** (a fold increase >1.65 is indicated by five stars (*****))”. Moreover, the EC (1.5-fold increase) in data set [2] was below 0.1 µM.

The molecule `CCN1CCC(c2ccc3nc(-c4cc5c(C)nc(C)cn5n4)cc(=O)n3c2)CC1` [Compound 454, 2-(4,6-dimethylpyrazolo[1,5-a]pyrazin-2-yl)-7-(1-ethylpiperidin-4-yl)-4H-pyrido[1,2-a]pyrimidin-4-one] showed a melting point of 170 to 172 °C. For the same molecule, in data set [1], the “EC1.5x for Smn protein expression” value is recorded as “**** (an EC1.5x≤0.3 μM is indicated by four stars (****))” and the “maximum fold (Fold) increase” value was “***** (a fold increase >1.65 is indicated by five stars (*****))”. The EC (1.5-fold increase) in data set [2] is below 0.1 µM.

As for `CCc1cc(N2CCN3CCC[C@@H]3C2)cn2c(=O)cc(-c3ccc(OC)c(OC)c3)nc12` [Compound 455, 2-(3,4-dimethoxyphenyl)-9-ethyl-7-[(8aR)-hexahydropyrrolo[1,2-a]pyrazin-2(1H)-yl]-4H-pyrido[1,2-a]pyrimidin-4-one], the melting point was in the range of 180 to 184 °C. In addition, in data set [1], the “maximum fold (Fold) increase” value was “** (a fold increase between >1.2 and ≤1.35 is indicated by two stars (**))”. Also, the EC (1.5-fold increase) in data set [2] lay in the range of 0.1 to 0.3 µM.

In turn, `COCCNC1CCN(c2cc(C)c3nc(-c4ccc(OC)c(OC)c4)cc(=O)n3c2)CC1` [Compound 456, 2-(3,4-dimethoxyphenyl)-7-{4-[(2-methoxyethyl)amino]piperidin-1-yl}-9-methyl-4H-pyrido[1,2-a]pyrimidin-4-one] had a melting point of 178 to 182 °C. Besides, in data set [1], the “maximum fold (Fold) increase” value was “*** (a fold increase between >1.35 and ≤1.5 is indicated by three stars (***))”. Moreover, the EC (1.5-fold increase) in data set [2] was 0.1 to 0.3 µM.

Molecule `Cc1cn2nc(-c3cc(=O)n4cc(N5CCN(C)CC5)cc(C)c4n3)cc2c(C)n1` [Compound 457, 2-(4,6-dimethylpyrazolo[1,5-a]pyrazin-2-yl)-9-methyl-7-(4-methylpiperazin-1-yl)-4H-pyrido[1,2-a]pyrimidin-4-one] registered a melting point of 262 to 271 °C. Also, in data set [1], the “EC1.5x for Smn protein expression” value is given as “**** (an EC1.5x≤0.3 μM is indicated by four stars (****))” and the “maximum fold (Fold) increase” value is given as “***** (a fold increase >1.65 is indicated by five stars (*****))”. The EC (1.5-fold increase) in data set [2] was below 0.1 µM.

`Cc1cn2nc(-c3cc(=O)n4cc(N5CCN6CCC[C@@H]6C5)cc(C)c4n3)cc2c(C)n1` [Compound 458, 2-(4,6-dimethylpyrazolo[1,5-a]pyrazin-2-yl)-7-[(8aR)-hexahydropyrrolo[1,2-a]pyrazin-2(1H)-yl]-9-methyl-4H-pyrido[1,2-a]pyrimidin-4-one] gave a melting point of 244 to 256 °C. In addition, in data set [1], the “EC1.5x for Smn protein expression” value is “*** (an EC1.5× between >0.3 μM and ≤1 μM is indicated by three stars (***))”; the “maximum fold (Fold) increase” value was “**** (a fold increase between >1.5 and ≤1.65 is indicated by four stars (****))”. For the same molecule, in data set [2], the EC (1.5-fold increase) is below 0.1 µM.
